Data on one molecule can be found in ChEMBL document CHEMBL6096738, “Optimization of Single Relaxin B-Chain Peptide Leads to the Identification of R2R01, a Potent, Long-Acting RXFP1 Agonist for Cardiovascular and Renal Diseases” (J Med Chem, 2025).

The nature of data set [1]: Drug metabolism in male Beagle dog assessed as fatty acid chain oxidation mediated M+16 metabolite formation by measuring metabolite to parent compound AUC ratio at 3 mg/kg, sc measured after 198 hrs by LC-HRMS analysis. In kind it is ADME, organism-based, Canis lupus familiaris. Particulars: in vivo.
A short description of data set [2]: Drug metabolism in male Beagle dog assessed as fatty acid chain oxidation mediated M+16 metabolite formation by measuring metabolite to parent compound AUC ratio at 1 mg/kg, iv measured after 198 hrs by LC-HRMS analysis. The data set is classed as ADME, organism-based, Canis lupus familiaris. Particulars: in vivo.
Data set [3] is described as follows: Drug metabolism in male Sprague-Dawley rat assessed as fatty acid chain oxidation mediated M+16 metabolite formation by measuring metabolite to parent compound AUC ratio at 3 mg/kg, sc measured after 198 hrs by LC-HRMS analysis. The data set is classed as ADME, organism-based. Particulars: in vivo.
Data set [4] is described as follows: Drug metabolism in female Gottingen pig assessed as fatty acid chain oxidation mediated M+16 metabolite formation by measuring metabolite to parent compound AUC ratio at 1 mg/kg, sc measured after 198 hrs by LC-HRMS analysis. In kind it is ADME, organism-based, Sus scrofa. Particulars: in vivo.
Data set [5] deals with T1, Relaxin receptor 1 (Homo sapiens, UniProt Q9HBX9).
T1 sequence (Q9HBX9 whole entry): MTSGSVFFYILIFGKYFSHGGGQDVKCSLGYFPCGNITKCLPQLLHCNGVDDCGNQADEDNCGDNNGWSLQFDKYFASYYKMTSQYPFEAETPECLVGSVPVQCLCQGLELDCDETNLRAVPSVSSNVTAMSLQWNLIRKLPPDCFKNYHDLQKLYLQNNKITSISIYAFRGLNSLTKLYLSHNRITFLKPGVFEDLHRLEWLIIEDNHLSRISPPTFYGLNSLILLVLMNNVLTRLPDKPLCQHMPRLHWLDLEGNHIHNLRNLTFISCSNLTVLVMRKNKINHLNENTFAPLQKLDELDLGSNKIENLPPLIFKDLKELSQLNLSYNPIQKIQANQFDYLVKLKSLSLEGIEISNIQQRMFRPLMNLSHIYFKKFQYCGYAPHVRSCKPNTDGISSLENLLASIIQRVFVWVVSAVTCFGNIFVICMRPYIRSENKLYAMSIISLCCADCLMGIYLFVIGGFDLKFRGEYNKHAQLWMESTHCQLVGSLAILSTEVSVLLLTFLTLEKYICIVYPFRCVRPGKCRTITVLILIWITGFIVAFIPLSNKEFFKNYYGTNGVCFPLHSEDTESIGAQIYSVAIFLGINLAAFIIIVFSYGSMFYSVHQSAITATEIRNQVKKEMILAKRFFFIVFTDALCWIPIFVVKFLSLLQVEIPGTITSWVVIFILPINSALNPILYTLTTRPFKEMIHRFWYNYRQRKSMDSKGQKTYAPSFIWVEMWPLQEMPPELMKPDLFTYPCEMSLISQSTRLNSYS
Briefly: Agonist activity at human RXFP1 expressed in 2%HSA treated human OVCAR-5 cells assessed as intracellular cAMP accumulation incubated for 30 mins with 2% HSA pretreated compound by HTRF assay. In kind it is functional, cell-based. In general terms: cAMP levels reflect the balance of adenylyl cyclase and phosphodiesterase activity.

Data set [6] is described as follows: Drug metabolism in male Sprague-Dawley rat assessed as fatty acid chain oxidation mediated M+16 metabolite formation by measuring metabolite to parent compound AUC ratio at 1 mg/kg, iv measured after 198 hrs by LC-HRMS analysis. The data set is classed as ADME, organism-based. Conditions: in vivo.
Data set [7] in a line: Cmax in male Sprague-Dawley rat at 3 mg/kg, sc measured after 198 hrs by LC-HRMS analysis. Conditions: in vivo. In kind it is ADME, organism-based.
Data set [8] in a line: Induction of immune response in human CD4+ T cells assessed as increase in auto reactive T cells at 3 uM preincubated with monocyte-derived immature dendritic cells followed by T cell addition and further stimulated on day 7 and 14 with autologous dendritic cells and measured after 5 days post last stimulation by IFNgamma-Elispot analysis. In kind it is toxicity, cell-based. Conditions: 120 h.

Data set [9] in a line: Half-life in male Sprague-Dawley rat at 1 mg/kg, iv measured after 198 hrs by LC-HRMS analysis. Conditions: in vivo. In kind it is ADME, organism-based.
Data set [10] in a line: Bioavailability in male Sprague-Dawley rat at 3 mg/kg, sc measured after 198 hrs by LC-HRMS analysis. In kind it is ADME, organism-based. Conditions: in vivo.
Data set [11] concerns the target T2, Relaxin receptor 1 (Homo sapiens) (UniProt Q9HBX9).
T2 sequence (whole entry): T1 sequence (Q9HBX9 whole entry)
The data set can be described thus: Agonist activity at human RXFP1 expressed in human OVCAR-5 cells assessed as intracellular cAMP accumulation by measuring maximal efficacy incubated for 30 mins by HTRF assay relative to control. The data set is classed as functional, cell-based. Particulars: filed as agonist.

Data set [12] relates to Rattus norvegicus. Briefly: Chronotropic effect in pithed male Sprague-Dawley rat assessed as increase in heart rate at 1 mg/kg, iv measured after 60 mins relative to control. In kind it is functional.
A short description of data set [13]: Half-life in female Gottingen pig at 1 mg/kg, iv measured after 198 hrs by LC-HRMS analysis. The data set is classed as ADME, organism-based, Sus scrofa. Conditions: in vivo.
Data set [14] can be described thus: Induction of mast cell degranulation in human LAD2 cells assessed as beta-hexosaminidase release by measuring maximal efficacy of 4-methylumbelliferyl N-acetyl-beta-D-glucosaminide hydrolysis at 33 uM incubated for 30 mins by plate reader analysis relative to control. Particulars: probe 4-methylumbelliferyl N-acetyl-beta-D-glucosaminide. The data set is classed as toxicity, cell-based.

Data set [15] can be described thus: Induction of mast cell degranulation in human LAD2 cells assessed as beta-hexosaminidase release by measuring 4-methylumbelliferyl N-acetyl-beta-D-glucosaminide hydrolysis incubated for 30 mins by plate reader analysis. In kind it is toxicity, cell-based. Conditions: probe 4-methylumbelliferyl N-acetyl-beta-D-glucosaminide.
For data set [16], the target named is T2, Relaxin receptor 1 (Homo sapiens). The data set can be described thus: Agonist activity at human RXFP1 expressed in 2%HSA treated human OVCAR-5 cells assessed as intracellular cAMP accumulation by measuring maximal efficacy incubated for 30 mins with 2% HSA pretreated compound by HTRF assay relative to control. Particulars: filed as agonist. In kind it is functional, cell-based.

The nature of data set [17]: Drug metabolism in female Gottingen pig assessed as fatty acid chain oxidation mediated M+16 metabolite formation by measuring metabolite to parent compound AUC ratio at 1 mg/kg, iv measured after 198 hrs by LC-HRMS analysis. The data set is classed as ADME, organism-based, Sus scrofa. Particulars: in vivo.
Data set [18] is described as follows: AUC (0 to 24 hrs) in male Sprague-Dawley rat at 1 mg/kg, iv measured after 198 hrs by LC-HRMS analysis. The data set is classed as ADME, organism-based. Particulars: in vivo.
Data set [19] in a line: Half-life in male Beagle dog at 1 mg/kg, iv measured after 198 hrs by LC-HRMS analysis. Conditions: in vivo. The data set is classed as ADME, organism-based, Canis lupus familiaris.
Data set [20] addresses T1, Relaxin receptor 1. Briefly: Agonist activity at human RXFP1 expressed in human OVCAR-5 cells assessed as intracellular cAMP accumulation incubated for 30 mins by HTRF assay. In kind it is functional, cell-based.

The structures appear in SMILES notation. Starred links: 1 amine or outer side, 2 acyl side, 3 side chain; linkers in the order of their positions; H or OH if unused. Non-standard residues stand in square brackets, D forms with d. Residues, ends and D or L forms follow the SMILES beside them. Groups on a side chain read outwards from the residue. *: point of attachment. γGlu = O=C(O)[C@H](CCC(=O)[*:2])N[*:1]; Stearoyl = CCCCCCCCCCCCCCCCCC(=O)*; Nle = CCCC[C@H](N)C(=O)O; AEEA = NCCOCCOCC(=O)O; Aib = CC(C)(N)C(=O)O Where only a bound is given, the exact number is not on record here.

On to `CCCCCCCCCCCCCCCCCC(=O)N[C@@H](CCC(=O)N[C@@H](CCC(=O)N[C@@H](CCC(=O)NCCOCCOCC(=O)NCCOCCOCC(=O)NCCOCCOCC(=O)NCCCC[C@H](NC(=O)[C@H](CCCCNC(C)=O)NC(=O)[C@H](CCCCN)NC(=O)[C@H](CCCNC(=N)N)NC(=O)C(C)(C)NC(=O)[C@H](CO)NC(=O)[C@H](Cc1c[nH]c2ccccc12)NC(=O)[C@@H](NC(=O)[C@H](CO)NC(=O)[C@H](CCCC)NC(=O)CNC(=O)[C@H](CCC(=O)O)NC(=O)C(C)(C)NC(=O)C(C)(C)NC(=O)[C@@H](NC(=O)[C@H](CCCCNC(C)=O)NC(=O)[C@H](C)NC(=O)[C@H](CCCNC(=N)N)NC(=O)[C@@H](NC(=O)[C@H](CCCCN)NC(=O)[C@H](CCC(=O)O)NC(=O)[C@H](CCCNC(=N)N)NC(=O)CNC(=O)[C@H](CCC(=O)O)NC(=O)[C@H](CC(C)C)NC(C)=O)C(C)C)[C@@H](C)CC)[C@@H](C)O)C(N)=O)C(=O)O)C(=O)O)C(=O)O` (Ac-LEGREKVRAK(Ac)I[Aib][Aib]EG[Nle]STWS[Aib]RKK(Ac)K([AEEA-AEEA-AEEA-γGlu-γGlu-γGlu-Stearoyl])-NH2), for which the “Ratio AUC” value in data set [1] is given as 6.6; in data set [2] it was 19.4; in data set [3], 0.104; in data set [4], 4; in data set [6], less than 0.1; in [17], 4. Besides, the EC50 (in general, the concentration at which the effect is half-maximal) was 18.4 nM in data set [5] and 0.2 nM in data set [20]. In addition, the concentration in data set [7] peaked (Cmax) at 1500 nM. Moreover, the values for the Activity result in [8] and in data set [12] were “Non-toxic” and 29%, respectively. The half-life (in general, how long it takes for the measured level to halve) in data set [9] is 3.9 h; in [13], 7 h; in data set [19] it was 3.4 h. Also, in [10], the bioavailability (as a rule, dose-corrected exposure relative to a reference, in per cent) amounted to 74%. The Emax (as a rule, the size of the effect at its maximum, as opposed to the concentration needed) in data set [11] worked out at 84%; in data set [16] it was 89%. Further, the Emax at 0.5 h, 33 µM in data set [14] amounted to 59.6%. For the same molecule, the EC50 at 30 min in data set [15] worked out at 1260 nM. Moreover, the AUC(0-t) (commonly exposure summed from dosing to a finite time, without extrapolation to infinity) at 198 h in data set [18] was 9.4 µM·h.
